Measurements taken from patent publication USH83H, “Dental antiplaque agents and inhibitors of connective tissue destruction” (American Cyanamid Company, priority 1985, dated 1986).
Counter-ions that a name gives are not always drawn. Each block holds one compound with its values, some of them ahead of it.

Key:
[1] = system: corneal ulceration; settings: human; cited from earlier work
[2] = system: collagenase; settings: literature or U.S. Pat. No. 4,297,372; cited from earlier work
[3] = system: corneal ulcerations; settings: directly applied; alkali burned rabbit; cited from earlier work
[4] = In vitro binding (competition) assay with 14C reference compound on tooth powder; settings: 1 mg tooth powder, PBS, 60 minutes at 37° C.; relative to reference 6,6'-[ureylenebis(m-phenylenecarbonylimino)] analog; >1 = less efficient
From the text: Using (radioactive) ^14 C-6,6'-[ureylenebis(m-phenylenecarbonylimino)]bis[4-hydroxy-2-naphthalenesulfonic acid]disodium salt, an in vitro binding (competition) assay procedure has been established which involves an insoluble substrate such as tooth powder which will bind the ^14 C-6,6'-[ureylenebis(m-phenylenecarbonylimino)]bis[4-hydroxy-2-naphthalenesulfonic acid]disodium salt. The amount of ^14 C-6,6'-[ureylenebis(m-phenylenecarbonylimino)]bis[4-hydroxy-2-naphthalenesulfonic acid]disodium salt bound is determined by washing away the unbound radioactive compound and counting CPM (counts per minute) of the insoluble tooth powder/^14 C-6,6'-[ureylenebis(m-phenylenecarbonylimino)]bis[4-hydroxy-2-naphthalenesulfonic acid]disodium salt complex. […] The inhibiting effect of the test compound on binding compared to non-radioactive 6,6'-[ureylenebis(m-phenylenecarbonylimino)]bis[4-hydroxy-2-naphthalenesulfonic acid]disodium salt was determined as follows: A one mg amount of tooth powder was incubated in one ml of phosphate buffered saline (PBS) with 10 μg of ^14 C-6,6'-[ureylenebis(m-phenylenecarbonylimino)]bis[4-hydroxy-2-naphthalenesulfonic acid]disodium salt and varying dose amounts (ranging from 0 to 2 mg) of the same cold (non-radioactive) compound. […]

[5] = molecular target: T1, human skin fibroblast collagenase (Homo sapiens, UniProt P03956); assay: Collagenase Assay, Test Code 006 (degradation of radiolabeled native collagen fibrils); format: biochemical; settings: test conc.: 30 μg/ml; ratio of weight (μg) for 50% inhibition vs reference 6,6'-[ureylenebis(m-phenylenecarbonylimino)] analog; >1 = less active
T1 construct: endogenous in cells; host or cells: human skin fibroblasts
T1 sequence (P03956 100-469): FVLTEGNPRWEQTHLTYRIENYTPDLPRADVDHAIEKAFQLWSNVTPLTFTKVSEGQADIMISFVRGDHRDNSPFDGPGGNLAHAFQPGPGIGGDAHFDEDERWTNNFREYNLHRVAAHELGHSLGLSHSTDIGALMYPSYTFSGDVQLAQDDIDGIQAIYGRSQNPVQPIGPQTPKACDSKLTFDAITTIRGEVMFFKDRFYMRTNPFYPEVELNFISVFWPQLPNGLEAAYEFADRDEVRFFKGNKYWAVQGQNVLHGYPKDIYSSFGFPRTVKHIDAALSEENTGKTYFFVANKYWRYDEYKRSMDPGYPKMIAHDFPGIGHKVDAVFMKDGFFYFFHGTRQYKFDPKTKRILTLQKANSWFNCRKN
Protocol: (i) Collagenase Assay--Test Code 006
A collagenase assay was performed by a modification of the method of Harper, et al., Biochem., 10, 3035 (1971). In a typical assay (total volume of 0.45 ml), 100 μl of the activated enzyme was added to the ^14 C-labeled collagen fibrils (250 μl) followed by 100 μl of 50 mM cacodylate, pH 7.4, containing 5 mM calcium chloride. After incubation at 37° C. for 16 hours, the tubes were centrifuged in a Beckman microfuge for five minutes at full speed. An aliquot (200 μl) of the supernatant, representing collagenase digestion products of the fibril, was assayed for radioactivity. The effect of the test compound on collagen degradation by collagenase was examined as follows:
Varying concentrations of the test compound (in distilled water) were added to the assay tubes containing active collagenase (total volume 450 μl) and after 16 hours the amount of radioactivity in the supernatant was determined. Appropriate blanks and trypsin controls were run in parallel.
The result is expressed as an ID50 collagenase value which represents a ratio of the weight (μg) of the representative compound required for 50% inhibition of collagenase over the weight (μg) of 6,6'-[ureylenebis(m-phenylenecarbonylimino)]bis[4-hydroxy-2-naphthalenesulfonic acid]disodium salt required for 50% inhibition of collagenase.

[6] = compared with cysteine; cited from earlier work
[7] = Binding to insoluble collagenous structures; settings: teeth, dentin, gingiva and the like

Compound: N[C@@H](CS)C(=O)O [cysteine]
treatment of acute and chronic corneal ulceration [1]: effective in the treatment of acute and chronic corneal ulceration | collagenase inhibition / inhibition of collagen degradation [2]: collagenase inhibitors

Compound: sodium auriothiomalate
collagenase inhibition / inhibition of collagen degradation [2]: collagenase inhibitors

Compound: O=C([O-])CN(CCN(CC(=O)[O-])CC(=O)[O-])CC(=O)[O-].[Ca+2].[Ca+2] [Calcium ethylenediaminetetraacetate]
frequency of corneal ulceration [3]: reduce the frequency of ulceration

Compound: α2 -macroglobulin: serum component; naturally occurring collagenase inhibitor
collagenase inhibition / inhibition of collagen degradation [2]: collagenase inhibitors

Compound: Cc1ccc(C(=O)Nc2ccc(S(=O)(=O)O)c3cc(S(=O)(=O)O)cc(S(=O)(=O)O)c23)cc1NC(=O)c1cccc(NC(=O)Nc2cccc(C(=O)Nc3cc(C(=O)Nc4ccc(S(=O)(=O)O)c5cc(S(=O)(=O)O)cc(S(=O)(=O)O)c45)ccc3C)c2)c1 [Suramin]
collagenase inhibition / inhibition of collagen degradation [2]: not inhibiting the action of collagenase

ID50 Binding Ratio [4]: 1.55 | ID50 Collagenase Ratio [5]: 1.73
Compound: O=C(Nc1ccc(S(=O)(=O)Nc2ccc3cc(S(=O)(=O)O)cc(O)c3c2)cc1)Nc1ccc(S(=O)(=O)Nc2ccc3cc(S(=O)(=O)O)cc(O)c3c2)cc1 [6,6'-[Ureylenebis(p-phenylenesulfonylimino)]bis-[4-hydroxy-2-naphthalenesulfonic acid]disodium salt]

Compound: O[C@H](CS)[C@H](O)CS (racemic) [dithiothreitol]
collagenase inhibition / inhibition of collagen degradation [2]: collagenase inhibitors

Compound: Cc1cc(-c2ccc(/N=N/c3c(S(=O)(=O)O)cc4cc(S(=O)(=O)O)cc(N)c4c3O)c(C)c2)ccc1/N=N/c1c(S(=O)(=O)O)cc2cc(S(=O)(=O)O)cc(N)c2c1O [trypan blue]
collagenase inhibition / inhibition of collagen degradation [2]: inhibiting the activity of collagenase

Compound: CC(=O)N[C@@H](CS)C(=O)O [acetylcysteine]
frequency of corneal ulceration [3]: reduce the frequency of ulceration | treatment of acute and chronic corneal ulceration [1]: effective in the treatment of acute and chronic corneal ulceration | stability [6]: greater stability

Compound: O=C(Nc1cccc(C(=O)Nc2ccc3cc(S(=O)(=O)O)cc(O)c3c2)c1)Nc1cccc(C(=O)Nc2ccc3cc(S(=O)(=O)O)cc(O)c3c2)c1 [6,6'-[ureylenebis(m-phenylenecarbonylimino)]bis[4-hydroxy-2-naphthalenesulfonic acid]disodium salt]
reversibility and saturability of binding [7]: saturable and reversible | collagenase inhibition / inhibition of collagen degradation [2]: inhibitor of the degradation of collagen

Compound: c1cnc2c(c1)ccc1cccnc12 [1,10-phenanthroline]
collagenase inhibition / inhibition of collagen degradation [2]: collagenase inhibitors
